Assay results as given in US20080103212A1, “Treatment of fruit in storage facility with solid derived diphenylamine anti scald agent” (priority 2006, published 2008).

Assays:
[1] = tested on: Granny Smith and Red Delicious apples; test: Scald and decay observation of DPA-fogged apples in cold air storage (Example 1); format: in vivo
Text: DPA was applied to Granny Smith and Red Delicious apples at a research facility. Solid, technical grade (99.5%) DPA was melted and applied to the apples in a storage facility as an aerosol using a commercial thermal fogger equipment, provided by Custom Chemical of Warden Wash., as described above. The apples were loaded into 20 bins, of 900 pounds each, of each variety and stacked in a three by three arrangement. The bins were stacked: five high in all of the back rows, in a 5-4-5 high arrangement in the center row and in a 4-3-4 arrangement in the front row. DPA was applied at a rate of 15 grams per ton. This represents a 50% excess to account for any loss in void spaces. The thermal fogging equipment was placed in the hallway of the storage facility with two 10 foot lengths of flex pipe attached to a porthole in the door of the sealed storage room. Fumigating started and reached optimum saturation in 15 minutes. The porthole was then sealed and the room was left alone for 16 hours. Application of the aerosol DPA began with the storage facility fans off. The fans were turned on after 10 minutes of aerosol DPA application and run at ambient temperatures for 12-16 hours. The morning after application the room was unsealed the apples, bins, storage walls and fan blades were checked for anomalies such as DAP sublimation as crystals and possible phytotoxicity on the fruit. […] After the initial inspection the bins were arranged outside of the building so samples could be taken. Each bin was marked as to its location in the room and samples were marked with those same ID codes. Samples were taken from the top of each bin and also by digging into the center of the bin. Each bin was effectively sampled two times. These samples were tested for DPA residual by gas chromatography. The bins were than transferred to a cold air storage facility and observed for five months. Periodically samples were collected for DPA residue, scald and decay analysis as describe below. After 6 weeks additional samples were taken and tested for DPA residual by gas chromatography. These samples were taken like the first set, eight apples from the top of the bin and then digging into the center for eight apples. After two months in common storage four bins were set out for evaluation, two Granny Smith and two Red Delicious. […] The next samples were taken one month later. […] One month later samples were taken in the same fashion as before, top and middle of the bins. Because a fungicide was not used, penicillium rot was showing in about 8% of the Red Delicious samples. The Granny Smith samples were starting to show some decay, roughly 1⁄2 percent. […] The next to last sample was taken about 6 weeks later. Scald was not a problem. […] The positive impact of the treatment was especially evident in the Granny Smith apples which are more susceptible to scald. The decay incidences were unchanged. As stated in the earlier, there was generally a slightly higher decay rate in Red Delicious compared to prior art drench type applications, which typically use one or a combination of two fungicides. The decay in this test was attributed to the lack of fungicide use in this trial.

[2] = tested on: Granny Smith and Red Delicious apples; test: Inspection for phytotoxicity on the fruit the morning after DPA aerosol application (Example 1); format: in vivo; conditions: 15 grams per ton DPA aerosol
Text: DPA was applied to Granny Smith and Red Delicious apples at a research facility. Solid, technical grade (99.5%) DPA was melted and applied to the apples in a storage facility as an aerosol using a commercial thermal fogger equipment, provided by Custom Chemical of Warden Wash., as described above. The apples were loaded into 20 bins, of 900 pounds each, of each variety and stacked in a three by three arrangement. The bins were stacked: five high in all of the back rows, in a 5-4-5 high arrangement in the center row and in a 4-3-4 arrangement in the front row. DPA was applied at a rate of 15 grams per ton. This represents a 50% excess to account for any loss in void spaces. The thermal fogging equipment was placed in the hallway of the storage facility with two 10 foot lengths of flex pipe attached to a porthole in the door of the sealed storage room. Fumigating started and reached optimum saturation in 15 minutes. The porthole was then sealed and the room was left alone for 16 hours. Application of the aerosol DPA began with the storage facility fans off. The fans were turned on after 10 minutes of aerosol DPA application and run at ambient temperatures for 12-16 hours. The morning after application the room was unsealed the apples, bins, storage walls and fan blades were checked for anomalies such as DAP sublimation as crystals and possible phytotoxicity on the fruit.

c1ccc(Nc2ccccc2)cc1 [DPA, diphenylamine]
Scald ([1]; after two months in common storage, two Granny Smith and two Red Delicious bins): No Scald was apparent in any bin | Scald ([1]; final assessment, approximately two weeks after the next to last sample): no additional scald | Scald ([1]; next to last sample, about 6 weeks later, all bins): no scald found in any bin | Scald ([1]; one month after the two-month evaluation, both varieties): Scald was not showing in either variety | Scald ([1]; two months after the two-month evaluation, both varieties): Scald was not apparent in either variety | possible phytotoxicity on the fruit [2]: None was found
